Measured values taken from patent US8362000B2, “Azetidinyl diamides as monoacylglycerol lipase inhibitors” (Janssen Pharmaceutica NV, priority 2009, dated 2013).
Substitutions are numbered along the chain they refer to. Where two headings read alike, the source gives them in different places.

Experiments:
[1] = target: T1, purified wild type MGL (wt-MGLL 6H-11-313) (Homo sapiens, UniProt Q99685)
T1 sequence (Q99685 1-303): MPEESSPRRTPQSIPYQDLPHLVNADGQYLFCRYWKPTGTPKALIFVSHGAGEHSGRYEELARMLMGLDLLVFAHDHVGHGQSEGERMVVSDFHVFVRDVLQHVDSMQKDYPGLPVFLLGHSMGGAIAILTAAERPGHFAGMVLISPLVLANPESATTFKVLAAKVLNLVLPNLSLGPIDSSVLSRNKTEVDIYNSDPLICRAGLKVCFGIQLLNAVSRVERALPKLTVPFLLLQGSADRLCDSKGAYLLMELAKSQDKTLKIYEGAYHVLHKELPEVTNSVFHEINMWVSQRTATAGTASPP

MGL = target: T2, MGL (Rattus norvegicus, UniProt Q8R431); assay: 2-AG accumulation assay in rat brain homogenate; type: biochemical; conditions: rat brain homogenate; compound 1 μM; 2-AG accumulation as percent of vehicle; read-out: Rat Brain 2AG % VehCntrl (%) @ 1 μM
T2 construct: one g rat brain was homogenized using a Polytron homogenizer; from tissue; host or cells: rat brain homogenate
T2 sequence (Q8R431 1-303): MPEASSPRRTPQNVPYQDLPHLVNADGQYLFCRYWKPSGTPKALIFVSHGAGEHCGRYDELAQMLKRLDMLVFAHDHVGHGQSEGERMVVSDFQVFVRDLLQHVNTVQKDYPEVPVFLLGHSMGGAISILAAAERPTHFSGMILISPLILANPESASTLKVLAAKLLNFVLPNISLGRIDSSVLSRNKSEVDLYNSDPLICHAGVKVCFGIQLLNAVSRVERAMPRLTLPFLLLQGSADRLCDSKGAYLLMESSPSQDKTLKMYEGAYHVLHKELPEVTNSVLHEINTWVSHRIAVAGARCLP

mutant MGL = target: T3, mutant MGL (Homo sapiens, UniProt Q99685, L169S/L176S); assay: MGL ThermoFluor assay - mutant; type: binding
T3 sequence (Q99685 1-303 L169S/L176S): T1 sequence (Q99685 1-303) with L169S, L176S

[2] = ThermoFluor concentration-response, read-out: MGL mutant ThermoFluor Kd
[3] = ThermoFluor, compound concentration measured by qNMR, read-out: MGL mutant ThermoFluor qKd (using qNMR conc.)
[4] = ThermoFluor thermal stability binding assay, read-out: MGL mutant ThermoFluor Kd

| SMILES | IC50 [1] | 2-AG accumulation, % of vehicle control at 1 µM (MGL) | Kd (mutant MGL; [2]) | Kd (mutant MGL; [3]) | Kd (mutant MGL; [4]) | Kd (mutant MGL; ThermoFluor, compound concentration measured by qNMR, read-out: MGL mutant ThermoFluor qKd (μM) (using qNMR conc.)) | Kd (mutant MGL; compound concentration measured by qNMR, read-out: MGL mutant ThermoFluor qKd (using qNMR conc.)) |
| --- | --- | --- | --- | --- | --- | --- | --- |
| CCCCCCCC/C=C\CCCCCCCC(=O)N1CC(N2CCN(C(=O)c3nccs3)CC2)C1 [Cpd 641] | < 5 nM | 397% | 0.118 µM | 0.136 µM |  |  |  |
| O=C(c1ccc(S(=O)(=O)c2cccc(C(F)(F)F)c2)cc1)N1CC(N2CCN(C(=O)c3nccs3)CC2)C1 [Cpd 651] | 7 nM | 258% | 0.025 µM |  |  |  |  |
| O=C(c1ccc2c(c1)Sc1ccccc1O2)N1CC(N2CCN(C(=O)c3cscn3)CC2)C1 [Cpd 654] | 7 nM | 389% |  |  | 0.04 µM |  |  |
| CCCc1ccc(C(=O)N2CC(N3CCN(C(=O)c4nccs4)CC3)C2)cc1 [Cpd 655] | 8 nM | 359% | 0.029 µM |  |  |  |  |
| CCCN(CCC)S(=O)(=O)c1ccc(C(=O)N2CC(N3CCN(C(=O)c4nccs4)CC3)C2)cc1 [Cpd 658] | 9 nM | 351% |  | 0.402 µM |  |  |  |
| O=C(c1cscn1)N1CCN(C2CN(C(=O)c3sc4cc(F)c(C(F)(F)F)cc4c3Cl)C2)CC1 [Cpd 659] | 9 nM | 576% |  |  |  | 0.006 µM |  |
| O=C(c1ccc(Oc2cccc(C(F)(F)F)c2)nc1)N1CC(N2CCN(C(=O)c3nccs3)CC2)C1 [Cpd 660] | 10 nM | 410% | 0.065 µM |  |  |  |  |
| O=C(c1ccc2c(c1)CCN(c1ccccn1)C2)N1CC(N2CCN(C(=O)c3nccs3)CC2)C1 [Cpd 661] | 10 nM | 764% |  |  | 0.047 µM |  |  |
| O=C(c1nccs1)N1CCN(C2CN(C(=O)c3sc4cc(Cl)ccc4c3C(F)(F)F)C2)CC1 [Cpd 664] | 11 nM | 498% | 0.006 µM |  |  |  |  |
| O=C(c1ccc2c(c1)CCN(C(=O)c1cccs1)C2)N1CC(N2CCN(C(=O)c3nccs3)CC2)C1 [Cpd 665] | 13 nM | 507% |  |  | 0.058 µM |  |  |
| O=C(c1ccc2c(c1)C1C=CCC1C(c1cccc(Cl)c1)N2)N1CC(N2CCN(C(=O)c3nccs3)CC2)C1 (stereo not shown) [Cpd 667] | 14 nM | 856% | 0.013 µM |  |  |  |  |
| O=C(c1ccc2c(c1)CCN(c1ncccn1)C2)N1CC(N2CCN(C(=O)c3nccs3)CC2)C1 [Cpd 668] | 15 nM | 679% |  |  | 0.025 µM |  |  |
| O=C(c1ccc(N2CCCC2)cc1)N1CC(N2CCN(C(=O)c3nccs3)CC2)C1 [Cpd 669] | 15 nM | 583% | 0.005 µM |  |  |  |  |
| CC(C)(C)c1ccc(C(=O)N2CC(N3CCN(C(=O)c4nccs4)CC3)C2)cc1 [Cpd 672] | 17 nM | 268% | 0.016 µM |  |  |  |  |
| O=C(c1cscn1)N1CCN(C2CN(C(=O)c3sc4ccc(Cl)cc4c3C(F)(F)F)C2)CC1 [Cpd 673] | 17 nM | 280% | 0.05 µM |  |  |  |  |
| O=C(c1nccs1)N1CCN(C2CN(C(=O)c3[nH]c4nc(C(F)(F)F)ccc4c3Br)C2)CC1 [Cpd 675] | 19 nM | 330% |  | 0.025 µM |  |  |  |
| O=C(c1cc2cc(C(F)(F)F)ccc2s1)N1CCN(C2CN(C(=O)c3nccs3)C2)CC1 [Cpd 676, 1-[1-(1,3-Thiazol-2-ylcarbonyl)azetidin-3-yl]-4-{[5-(trifluoromethyl)-1-benzothiophen-2-yl]carbonyl}piperazine] | 21 nM | 437% | 0.029 µM |  |  |  |  |
| O=C(c1ccc(Sc2cccc(Cl)c2)cc1)N1CC(N2CCN(C(=O)C(F)(F)F)CC2)C1 [Cpd 677] | 21 nM | 141% |  |  |  |  | 0.432 µM |
